pEC50: −log10 of the molar value. Where two headings read alike, the source gives them in different places. Each block holds one compound with its values, some of them ahead of it.
Molecular target: T1, CFTR (Homo sapiens, UniProt P13569, DEL508-508)
T1 construct: endogenous in cells; host or cells: primary human bronchial epithelial cells from CF subjects (F508del/MF-HBE), differentiated at air-liquid interface
Test: HBE assay: Ussing chamber assay of CFTR-mediated short-circuit currents
Format: cell-based
Conditions: for pEC50: read-out: HBE EC50; for activation at 10 µM: read-out: HBE Activity at 10 μM (%)
Procedure: 1. Ussing Chamber Assay of CFTR-Mediated Short-Circuit Currents
(§1) Ussing chamber experiments were performed using human bronchial epithelial (HBE) cells derived from CF subjects heterozygous for F508del and a minimal function CFTR mutation (F508del/MF-HBE) and cultured as previously described (Neuberger T, Burton B, Clark H, Van Goor F Methods Mol Biol 2011:741:39-54). After four days the apical media was removed, and the cells were grown at an air liquid interface for >14 days prior to use.
(§2) To isolate the CFTR-mediated short-circuit (ISC) current, F508del/MF-HBE grown on Costar® Snapwell™ cell culture inserts were mounted in an Ussing chamber and the transepithelial ISC was measured under voltage-clamp recording conditions (Vhold=0 mV) at 37° C. The basolateral solution contained (in mM) 145 NaCl, 0.83 K2HPO4, 3.3 KH2PO4, 1.2 MgCl2, 1.2 CaCl2), 10 Glucose, 10 HEPES (pH adjusted to 7.4 with NaOH) and the apical solution contained (in mM) 145 NaGluconate, 1.2 MgCl2, 1.2 CaCl2), 10 glucose, 10 HEPES (pH adjusted to 7.4 with NaOH) and 30 μM amiloride to block the epithelial sodium channel. Forskolin (20 μM) was added to the apical surface to activate CFTR, followed by apical addition of a CFTR inhibitor cocktail consisting of BPO, GlyH-101, and CFTR inhibitor 172 (each at 20 μM final assay concentration) to specifically isolate CFTR currents. The CFTR-mediated ISC (μA/cm^2) for each condition was determined from the peak forskolin response to the steady-state current following inhibition.
2. Identification of Corrector Compounds
The activity of the CFTR corrector compounds on the CFTR-mediated ISC was determined in Ussing chamber studies as described above. The F508del/MF-HBE cell cultures were either incubated with the corrector compounds at a range of concentrations in combination with 1 μM Ivacaftor or were incubated with the corrector compounds at a single fixed concentration of 10 μM in combination with 1 μM Ivacaftor for 18-24 hours at 37° C. and in the presence of 20% human serum. The concentration of corrector compounds with 1 μM Ivacaftor during the 18-24 hours incubations was kept constant throughout the Ussing chamber measurement of the CFTR-mediated ISC to ensure compounds were present throughout the entire experiment.
Ussing Chamber Assay of CFTR-mediated short-circuit currents
as §1, with “(HIBE)” for “(HBE)”, “(F508del/MIF-HIBE)” for “(F508del/MF-HBE)”
as §2, with “KH2PO4,” for “K2HPO4,”
Identification of Corrector Compounds

[1] = HBE assay, read-out: HBE Max activity (%)
[2] = Table 13, read-out: HBE Max Activity (%)
[3] = Table 10, read-out: HBE Max activity (%)
[4] = Table 12, read-out: HBE Max Activity (%)
[5] = Table 11, read-out: HBE Max Activity (%)

T1 sequence (P13569 with tags, fused parts or gaps DEL508-508): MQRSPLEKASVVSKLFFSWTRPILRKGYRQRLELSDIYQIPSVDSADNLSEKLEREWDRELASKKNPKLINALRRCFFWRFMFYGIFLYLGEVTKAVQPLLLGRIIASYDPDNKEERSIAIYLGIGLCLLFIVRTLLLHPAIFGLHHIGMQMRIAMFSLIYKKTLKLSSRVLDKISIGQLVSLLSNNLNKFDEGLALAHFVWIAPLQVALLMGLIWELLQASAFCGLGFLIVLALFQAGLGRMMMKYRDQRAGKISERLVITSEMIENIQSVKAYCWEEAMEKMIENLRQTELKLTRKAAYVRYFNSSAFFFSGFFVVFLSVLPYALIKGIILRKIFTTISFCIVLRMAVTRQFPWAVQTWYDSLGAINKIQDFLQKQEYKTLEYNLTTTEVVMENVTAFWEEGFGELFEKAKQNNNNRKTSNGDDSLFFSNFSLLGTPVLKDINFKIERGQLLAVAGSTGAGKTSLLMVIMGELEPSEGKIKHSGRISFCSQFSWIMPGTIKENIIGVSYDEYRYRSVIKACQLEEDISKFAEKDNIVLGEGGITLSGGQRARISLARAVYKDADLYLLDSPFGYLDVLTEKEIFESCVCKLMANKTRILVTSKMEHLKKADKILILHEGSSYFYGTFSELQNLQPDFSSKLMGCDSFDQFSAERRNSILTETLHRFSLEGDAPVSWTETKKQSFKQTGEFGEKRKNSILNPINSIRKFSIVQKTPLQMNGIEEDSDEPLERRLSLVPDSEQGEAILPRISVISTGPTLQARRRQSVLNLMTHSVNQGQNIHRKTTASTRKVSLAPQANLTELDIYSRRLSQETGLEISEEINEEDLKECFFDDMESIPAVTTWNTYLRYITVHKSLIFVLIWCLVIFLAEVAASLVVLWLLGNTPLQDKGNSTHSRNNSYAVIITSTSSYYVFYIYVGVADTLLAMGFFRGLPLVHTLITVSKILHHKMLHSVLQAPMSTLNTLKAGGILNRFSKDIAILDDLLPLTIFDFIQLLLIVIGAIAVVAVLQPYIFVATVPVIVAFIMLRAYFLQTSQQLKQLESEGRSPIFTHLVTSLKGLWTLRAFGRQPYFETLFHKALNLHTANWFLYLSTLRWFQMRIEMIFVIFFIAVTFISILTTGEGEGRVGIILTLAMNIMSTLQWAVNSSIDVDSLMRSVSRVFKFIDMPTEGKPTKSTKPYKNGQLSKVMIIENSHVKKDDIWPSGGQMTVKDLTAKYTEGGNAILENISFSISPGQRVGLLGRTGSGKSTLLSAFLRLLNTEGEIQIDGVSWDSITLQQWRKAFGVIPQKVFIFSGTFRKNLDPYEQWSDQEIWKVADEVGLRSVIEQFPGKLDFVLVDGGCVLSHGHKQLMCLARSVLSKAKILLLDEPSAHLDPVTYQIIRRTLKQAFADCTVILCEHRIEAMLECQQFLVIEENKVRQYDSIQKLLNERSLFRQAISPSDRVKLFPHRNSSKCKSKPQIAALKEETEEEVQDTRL

SMILES: Cc1cccc(C)c1-c1cc2nc(n1)NS(=O)(=O)c1cccc(c1)C(=O)N(Cc1ncc(OC3CC4(CC4)C3)cn1)[C@H](CC1CC1)CO2 [Compound 1478]
- pEC50 (HBE assay): > 6.00
- Emax [1]: > 60%

SMILES: Cc1cccc(C)c1-c1cc2nc(n1)NS(=O)(=O)c1cccc(n1)C(=O)N(Cc1cncc(N(C)CC(C)(C)C)n1)[C@H](CC(C)(C)C)CO2 [Compound 1126]
- pEC50 (Table 13): > 6.00
- Emax [2]: > 60%

SMILES: Cc1cccc(C)c1-c1cc2nc(n1)NS(=O)(=O)c1cccc(c1)C(=O)N(Cc1ccccc1-c1c[nH]nc1C1CC1)[C@H](CC(C)(C)C)CO2 [Compound 303]
- pEC50 (Table 10): > 6.00
- Emax [3]: > 60%

SMILES: Cc1cccc(C)c1-c1cc2nc(n1)NS(=O)(=O)c1cccc(c1)C(=O)N(Cc1ccc(C3CCOCC3)cc1F)[C@H](CC(C)(C)C)CO2 [Compound 518]
- activation at 10 µM (Table 13): > 600%

SMILES: Cc1cccc(C)c1-c1cc2cc(n1)NS(=O)(=O)c1cccc(c1)C(=O)N(Cc1cncc(N(C)CC(C)(C)C)n1)[C@H](CC(C)(C)C)CO2 [Compound 527]
- pEC50 (Table 12): > 6.00
- Emax [4]: > 60%

SMILES: Cc1cccc(C)c1-c1cc2nc(n1)NS(=O)(=O)c1cccc(c1)C(=O)N(Cc1ncc(OC3CCC3)cn1)[C@H](CC1CCC1)CO2 [Compound 1426]
- pEC50 (HBE assay): > 6.00
- Emax [1]: > 60%

SMILES: Cc1cccc(C)c1-c1cc2nc(n1)NS(=O)(=O)c1cccc(c1)C(=O)N(CC(=O)N(C)CC1CCCCC1)[C@H](CC(C)(C)C)CO2 [Compound 231]
- pEC50 (Table 12): > 6.00
- Emax [4]: > 60%

SMILES: Cc1cccc(C)c1-c1cc2nc(n1)NS(=O)(=O)c1cccc(c1)C(=O)N(CC1CCCOC1)[C@H](CC(C)(C)C)CO2 (stereo partly shown) [Compound 819]
- pEC50 (Table 11): > 6.00

SMILES: Cc1cccc(C)c1-c1cc2nc(n1)NS(=O)(=O)c1cccc(c1)C(=O)N(Cc1ncc(N3CCC(C)(C)C3)cn1)[C@H](CC(C)C)CO2 [Compound 606]
- pEC50 (Table 11): > 6.00
- Emax [5]: > 60%

SMILES: Cc1cccc(C)c1-c1cc2nc(n1)NS(=O)(=O)c1cccc(c1)C(=O)N(CC(=O)NC1CCOCC1)[C@H](CC(C)(C)C)CO2 [Compound 189]
- activation at 10 µM (Table 13): > 600%

SMILES: Cc1cccc(C)c1-c1cc2nc(n1)NS(=O)(=O)c1cccc(c1)C(=O)N(Cc1cnc(C3CCCCC3)nc1)[C@H](CC(C)(C)C)CO2 [Compound 271]
- pEC50 (Table 12): > 6.00
- Emax [4]: > 60%

SMILES: Cc1cccc(C)c1-c1cc2nc(n1)NS(=O)(=O)c1cccc(c1)C(=O)N(Cc1ncc(C3CC4(COC4)C3)cn1)[C@H](CC(C)(C)C)CO2 [Compound 161]
- pEC50 (Table 13): > 6.00
- Emax [2]: > 60%

SMILES: Cc1cccc(C)c1-c1cc2nc(n1)NS(=O)(=O)c1cccc(c1)C(=O)N(Cc1coc(N3CCOCC3)n1)[C@H](CC(C)(C)C)CO2 [Compound 1358]
- pEC50 (HBE assay): > 6.00
- Emax [1]: > 60%

SMILES: Cc1cccc(C)c1-c1cc2nc(n1)NS(=O)(=O)c1cccc(c1)C(=O)N(Cc1ncc(N3CC(C)(C)OC(C)(C)C3)cn1)[C@H](CC(C)(C)C)CO2 [Compound 1145]
- pEC50 (Table 13): > 6.00
- Emax [2]: > 60%

SMILES: Cc1cnc(CN2C(=O)c3cccc(c3)S(=O)(=O)Nc3nc(cc(-c4c(C)cccc4C)n3)OC[C@H]2CC(C)(C)C)nc1N1CCCC1(C)C [Compound 327]
- activation at 10 µM (Table 12): > 600%

SMILES: Cc1cccc(C)c1-c1cc2nc(n1)NS(=O)(=O)c1cccc(c1)C(=O)N(CC(=O)N1CCC3(CCCC3)CC1)[C@H](CC(C)(C)C)CO2 [Compound 183]
- activation at 10 µM (Table 13): > 600%

SMILES: Cc1ccc2c(c1)CCN(C(=O)CN1C(=O)c3cccc(c3)S(=O)(=O)Nc3nc(cc(-c4c(C)cccc4C)n3)OC[C@H]1CC(C)(C)C)C2 [Compound 209]
- activation at 10 µM (Table 13): > 600%

Results, then the compound that gave them:

- pEC50 (Table 13): > 6.00
- Emax [2]: > 60%
SMILES: Cc1cccc(C)c1-c1cc2nc(n1)NS(=O)(=O)c1cccc(c1)C(=O)N(Cc1cccc(N(CCO)C(C)C)n1)[C@H](CC(C)(C)C)CO2 [Compound 530]

- pEC50 (Table 13): > 6.00
- Emax [2]: > 60%
SMILES: Cc1cccc(C)c1-c1cc2nc(n1)NS(=O)(=O)c1cccc(c1)C(=O)N(Cc1ncc(OC3CC3)cn1)[C@H](CC(C)(C)C)CO2 [Compound 1129]

- pEC50 (Table 11): 5.52 to 6.00
- Emax [5]: > 60%
SMILES: COCCN(C)c1cnc(CN2C(=O)c3cccc(c3)S(=O)(=O)Nc3nc(cc(-c4c(C)cccc4C)n3)OC[C@H]2CC(C)(C)C)cn1 [Compound 900]

- pEC50 (Table 10): > 6.00
- Emax [3]: > 60%
SMILES: Cc1cccc(C)c1-c1cc2nc(n1)NS(=O)(=O)c1cccc(c1)C(=O)N(Cc1ccc(N(C)C)nc1)[C@H](CC(C)(C)C)CO2 [Compound 529]

- pEC50 (Table 12): > 6.00
- Emax [4]: > 60%
SMILES: Cc1cccc(C)c1-c1cc2nc(n1)NS(=O)(=O)c1cccc(c1)C(=O)N(CC(=O)N(C)Cc1ccccn1)[C@H](CC(C)(C)C)CO2 [Compound 221]

- pEC50 (Table 11): > 6.00
- Emax [5]: > 60%
SMILES: Cc1cccc(C)c1-c1cc2nc(n1)NS(=O)(=O)c1cccc(c1)C(=O)N(Cc1cccc(N3CCC(C)(C)CC3)n1)[C@H](CC(C)(C)C)CO2 [Compound 474]

- pEC50 (Table 10): 5.52 to 6.00
- Emax [3]: > 60%
SMILES: COCCN(C)c1ccc(CN2C(=O)c3cccc(c3)S(=O)(=O)Nc3nc(cc(-c4c(C)cccc4C)n3)OC[C@H]2CC(C)(C)C)nc1 [Compound 504]

- pEC50 (Table 11): > 6.00
- Emax [5]: > 60%
SMILES: COCCN(C)c1cncc(CN2C(=O)c3cccc(c3)S(=O)(=O)Nc3nc(cc(-c4c(C)cccc4C)n3)OC[C@H]2CC(C)(C)C)n1 [Compound 895]

- activation at 10 µM (Table 13): > 600%
SMILES: Cc1cccc(C)c1-c1cc2nc(n1)NS(=O)(=O)c1cccc(c1)C(=O)N(Cc1cc(OC(C)C)ccn1)[C@H](CC(C)(C)C)CO2 [Compound 1114]

- pEC50 (Table 12): > 6.00
- Emax [4]: > 60%
SMILES: Cc1cccc(C)c1-c1cc2nc(n1)NS(=O)(=O)c1cccc(c1)C(=O)N(Cc1cccc(C(C)C(C)C)n1)[C@H](CC(C)(C)C)CO2 (stereo partly shown) [Compound 871]

- pEC50 (Table 13): > 6.00
- Emax [2]: > 60%
SMILES: Cc1cccc(C)c1-c1cc2nc(n1)NS(=O)(=O)c1cccc(c1)C(=O)N(Cc1ccc(C3CC(C)(C)C3)cn1)[C@H](CC(C)(C)C)CO2 [Compound 159]

- pEC50 (HBE assay): > 6.00
- Emax [1]: > 60%
SMILES: Cc1cccc(C)c1-c1cc2nc(n1)NS(=O)(=O)c1cccc(c1)C(=O)N(Cc1cncc(N3CCCC3C(C)C)n1)[C@H](CC(C)(C)C)CO2 (stereo partly shown) [Compound 1383]

- Emax [3]: > 60%
SMILES: Cc1cccc(C)c1-c1cc2nc(n1)NS(=O)(=O)c1cccc(c1)C(=O)N(Cc1ccc(-c3cnoc3)cn1)[C@H](CC(C)(C)C)CO2 [Compound 291]

- pEC50 (Table 13): > 6.00
- Emax [2]: > 60%
SMILES: COCCCN(c1cccc(CN2C(=O)c3cccc(c3)S(=O)(=O)Nc3nc(cc(-c4c(C)cccc4C)n3)OC[C@H]2CC(C)(C)C)n1)C(C)C [Compound 1136]

- Emax [3]: > 60%
SMILES: Cc1cccc(C)c1-c1cc2nc(n1)NS(=O)(=O)c1cccc(c1)C(=O)N(Cc1ccccn1)[C@H](CC(C)(C)C)CO2 [Compound 381]

- activation at 10 µM (Table 11): > 60%
SMILES: Cc1cccc(C)c1-c1cc2nc(n1)NS(=O)(=O)c1cccc(c1)C(=O)N(CC1CCC(C)(C)OC1)[C@H](CC(C)(C)C)CO2 (single isomer, unassigned) [Compound 31]

- pEC50 (HBE assay): > 6.00
- Emax [1]: > 60%
SMILES: Cc1ccc(N2CCCC2C)nc1CN1C(=O)c2cccc(c2)S(=O)(=O)Nc2nc(cc(-c3c(C)cccc3C)n2)OC[C@H]1CC(C)(C)C (stereo in doubt) [Compound 1346]

Source: patent publication US20240150377A1, “MODULATORS OF CYSTIC FIBROSIS TRANSMEMBRANE CONDUCTANCE REGULATOR” (VERTEX PHARMACEUTICALS INCORPORATED, priority 2020, published 2024)
